For seven molecules, Ki results are on record in BindingDB's records for doi:10.1046/j.1471-4159.2002.00817.x (Uppsala University, 2002).

For assay [1], the target named is T1, Neuropeptide Y receptor type 1 (Gallus gallus, UniProt Q8QFM1).
T1 sequence (Q8QFM1 whole entry): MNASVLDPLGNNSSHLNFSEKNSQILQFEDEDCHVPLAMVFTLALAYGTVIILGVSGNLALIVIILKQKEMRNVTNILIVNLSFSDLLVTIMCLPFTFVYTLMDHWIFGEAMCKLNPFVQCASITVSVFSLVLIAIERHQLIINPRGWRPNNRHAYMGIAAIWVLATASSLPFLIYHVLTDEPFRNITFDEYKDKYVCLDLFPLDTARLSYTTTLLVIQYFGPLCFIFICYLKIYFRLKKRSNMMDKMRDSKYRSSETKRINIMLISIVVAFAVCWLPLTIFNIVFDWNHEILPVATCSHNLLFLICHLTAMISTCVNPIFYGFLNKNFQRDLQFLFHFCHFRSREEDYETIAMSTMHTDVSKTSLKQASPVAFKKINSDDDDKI

Assay [2] addresses T2, Neuropeptide Y receptor type 5 (Gallus gallus, UniProt Q8QFM2).
T2 sequence (Q8QFM2 whole entry): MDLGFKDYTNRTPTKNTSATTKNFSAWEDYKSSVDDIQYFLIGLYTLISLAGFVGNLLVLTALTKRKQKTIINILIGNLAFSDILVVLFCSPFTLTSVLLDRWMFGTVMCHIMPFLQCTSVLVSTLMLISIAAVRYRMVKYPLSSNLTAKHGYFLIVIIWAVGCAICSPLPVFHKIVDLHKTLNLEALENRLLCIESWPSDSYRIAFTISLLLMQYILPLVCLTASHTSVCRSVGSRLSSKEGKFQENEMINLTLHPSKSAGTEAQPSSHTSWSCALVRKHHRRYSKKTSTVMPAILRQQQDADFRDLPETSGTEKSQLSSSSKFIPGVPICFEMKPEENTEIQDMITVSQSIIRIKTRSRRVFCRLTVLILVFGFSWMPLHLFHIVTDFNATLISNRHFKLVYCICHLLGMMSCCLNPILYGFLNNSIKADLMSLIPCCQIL

Take `CC[C@H](C)[C@H](NC(=O)[C@H](Cc1ccc(O)cc1)NC(=O)[C@H](CCCNC(=N)N)NC(=O)[C@H](CCCNC(=N)N)NC(=O)[C@H](CC(C)C)NC(=O)[C@H](CC(=O)O)NC(=O)[C@H](C)NC(=O)[C@H](C)NC(=O)[C@H](Cc1ccc(O)cc1)NC(=O)[C@H](CCC(N)=O)NC(=O)[C@H](C)NC(=O)[C@H](CCSC)NC(=O)[C@H](CCC(N)=O)NC(=O)[C@H](CCC(=O)O)NC(=O)[C@@H]1CCCN1C(=O)[C@@H](NC(=O)[C@H](C)NC(=O)[C@H](CC(N)=O)NC(=O)[C@H](CC(=O)O)NC(=O)CNC(=O)[C@@H]1CCCN1C(=O)[C@H](Cc1ccc(O)cc1)NC(=O)[C@@H](NC(=O)[C@@H]1CCCN1C(=O)[C@H](CCC(=O)O)NC(=O)[C@H](CC(C)C)NC(=O)[C@@H]1CCCN1C(=O)[C@H](C)N)C(C)C)[C@@H](C)O)C(=O)N[C@@H](CC(N)=O)C(=O)N[C@@H](CCSC)C(=O)N[C@@H](CC(C)C)C(=O)N[C@H](C(=O)N[C@@H](CCCNC(=N)N)C(=O)N1CCC[C@H]1C(=O)N[C@@H](CCCNC(=N)N)C(=O)N[C@@H](Cc1ccc(O)cc1)C(N)=O)[C@@H](C)O` [CAS_59763-91-6]: the Ki (usually a measure of affinity in units of concentration, obtained from inhibition or displacement) in assay [1] is more than 10 µM; in assay [2], 0.48 nM.

With `CN(C)CC1CCC(CN=C(N)c2ccc(CC(NC(=O)C(Cc3ccccc3)NS(=O)(=O)c3ccc4ccccc4c3)C(=O)N3CCCC3)cc2)CC1` (stereo unspecified) [CAS_5312150], the figures for the Ki in assay [1] and in assay [2] were more than 10 µM and more than 10000 nM, respectively.

On to `Nc1nc(NC[C@H]2CC[C@H](CNS(=O)(=O)c3cccc4ccccc34)CC2)nc2ccccc12` [CGP 71683], for which the Ki in assay [1] is more than 10 µM.

On to `O=c1oc2ccccc2c(O)c1C1CC(c2ccc(-c3ccccc3)cc2)Cc2ccccc21` (stereo unspecified) [NSC_41735], for which the Ki in assay [1] is more than 10 µM; in assay [2], 0.81 nM.

`N=C(N)NCCCC(NC(=O)C(c1ccccc1)c1ccccc1)C(=O)NCc1ccc(O)cc1` (stereo unspecified) [NSC_5311023]: the Ki in assay [2] was more than 10000 nM.

Regarding `NC(N)=NCCCC(NC(=O)CC1(CC(=O)N2CCN(C3c4ccccc4NC(=O)c4ccccc43)CC2)CCCC1)C(=O)NCCn1c(=O)n(-c2ccccc2)n(-c2ccccc2)c1=O` (stereo unspecified) [NSC_5311024], the Ki in assay [1] was more than 10 µM.

As for “H-GPSQPTYPGDDAPVEDLIRFYNDLQQYLNVVTRHRY-NH2 [NSC_0]”, the results for the Ki in assay [1] and in assay [2] were more than 10 µM and 4.68 nM, respectively.
